Paper PMC11198769, “Enhancement of transcription efficiency by TAR-Tat system increases the functional expression of human olfactory receptors” (PLOS ONE, 2024)

Experiments:
[1] = target: T1, OR2W1 (Homo sapiens, UniProt Q9Y3N9); design: method as in PMID 19261596; conditions: read-out: EC50 value of n-hexanal for OR2W1 reported in a previous study; cited from earlier work
T1 construct: Lucy tag (N); FLAG (N); Rho tag (N); expressed in transfected cells; host or cells: Flp-In T-REx-293 cells stably expressing RTP1S, Gαolf and Ric8-b
T1 sequence (Q9Y3N9 1-320): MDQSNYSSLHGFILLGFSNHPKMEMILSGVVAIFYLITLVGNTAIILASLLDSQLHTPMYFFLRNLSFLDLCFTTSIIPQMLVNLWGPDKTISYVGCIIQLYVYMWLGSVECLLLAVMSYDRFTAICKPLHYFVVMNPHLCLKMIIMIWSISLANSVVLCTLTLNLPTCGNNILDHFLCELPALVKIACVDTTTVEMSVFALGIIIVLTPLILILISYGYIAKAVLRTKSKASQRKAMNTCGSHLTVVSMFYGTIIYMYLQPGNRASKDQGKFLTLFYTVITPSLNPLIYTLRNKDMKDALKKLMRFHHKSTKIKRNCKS

[2] = target: T2, OR8B4 (Homo sapiens, UniProt Q96RC9); assay: hOR assay (GloSensor cAMP luciferase), dose-response; type: cell-based; conditions: OR8B4, with or without the TAR-Tat system
T2 construct: Lucy tag (N); FLAG (N); Rho tag (N); expressed in transfected cells; host or cells: Flp-In T-REx-293 cells stably expressing RTP1S, Gαolf and Ric8-b
T2 sequence (Q96RC9 1-309): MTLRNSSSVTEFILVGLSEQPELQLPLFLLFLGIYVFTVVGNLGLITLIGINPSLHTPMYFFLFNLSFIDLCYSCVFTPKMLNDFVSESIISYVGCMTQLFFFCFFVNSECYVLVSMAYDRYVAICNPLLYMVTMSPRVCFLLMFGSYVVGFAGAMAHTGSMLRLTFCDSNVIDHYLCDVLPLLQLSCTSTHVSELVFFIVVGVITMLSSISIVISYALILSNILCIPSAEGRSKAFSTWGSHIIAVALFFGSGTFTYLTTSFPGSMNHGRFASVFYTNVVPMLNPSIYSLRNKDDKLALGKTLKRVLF

[3] = target: T3, OR2M3 (Homo sapiens, UniProt Q8NG83); assay: as above; type: cell-based
T3 construct: Lucy tag (N); expressed in transfected cells; host or cells: Flp-In T-REx-293 cells stably expressing RTP1S, Gαolf and Ric8-b
T3 sequence (Q8NG83 1-312): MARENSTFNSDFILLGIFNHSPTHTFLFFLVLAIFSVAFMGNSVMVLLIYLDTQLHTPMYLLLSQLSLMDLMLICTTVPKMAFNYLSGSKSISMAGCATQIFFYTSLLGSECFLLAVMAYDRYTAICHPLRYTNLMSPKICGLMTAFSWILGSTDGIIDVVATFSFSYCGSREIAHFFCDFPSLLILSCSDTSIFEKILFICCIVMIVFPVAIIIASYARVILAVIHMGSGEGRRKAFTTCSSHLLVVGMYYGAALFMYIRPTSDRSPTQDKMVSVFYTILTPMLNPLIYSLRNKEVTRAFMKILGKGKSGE

[4] = target: T4, OR5M3 (Homo sapiens, UniProt Q8NGP4); assay: as above; type: cell-based; conditions: OR5M3, with or without the TAR-Tat system
T4 construct: Lucy tag (N); FLAG (N); Rho tag (N); expressed in transfected cells; host or cells: Flp-In T-REx-293 cells stably expressing RTP1S, Gαolf and Ric8-b
T4 sequence (Q8NGP4 1-307): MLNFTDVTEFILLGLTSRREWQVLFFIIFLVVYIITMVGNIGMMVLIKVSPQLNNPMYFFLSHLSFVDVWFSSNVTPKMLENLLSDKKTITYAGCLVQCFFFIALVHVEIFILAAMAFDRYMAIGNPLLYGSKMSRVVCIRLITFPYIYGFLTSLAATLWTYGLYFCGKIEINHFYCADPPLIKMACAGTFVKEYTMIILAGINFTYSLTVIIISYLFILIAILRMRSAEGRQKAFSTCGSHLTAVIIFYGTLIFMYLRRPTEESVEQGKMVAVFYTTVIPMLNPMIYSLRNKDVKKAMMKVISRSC

concentration-dependent response to n-hexanal [2]: no concentration-dependent response
mode of action on OR2M3 ([3]; OR2M3/pHEK plasmid): inverse agonist
concentration-dependent response to n-hexanal [4]: no concentration-dependent response
Compound: CCCCCC=O [n-hexanal]
EC50 [1]: 7.9 µM
suppression of the active response of OR2M3 to agonist ([3]; coadministered with 500 μM 3-mercapto-2-methyl-1-pentanol, OR2M3/pHEK plasmid): suppressed in an n-hexanal concentration-dependent manner
inhibitory effect on the constitutive activity of OR2M3 (luminescence values) ([3]; with and without the TAR-Tat system): decreased in an n-hexanal concentration-dependent manner only in the case with the TAR-Tat system
